Test results published in PMC9386018, “A lymphatic-absorbed multi-targeted kinase inhibitor for myelofibrosis therapy” (Nature Communications, 2022).
Several values for one entry are separate records, joined by “and”; a condition that tells them apart may be missing. Equal values may be shown once.

Key:
[1] = target: Target kinase isoforms (PI3K, mTOR, RAF, MEK) (Homo sapiens, UniProt P42336); assay: Target kinase isoforms 10-point IC50 determination (Supplementary Fig. 7); format: biochemical; settings: PI3K alpha
Excerpt: (§1) The average percent kinase inhibition from replicate data was ranked low to high, converted to a compatible identifier format, then input into Coral Human Kinome Visualization software for presentation analysis. […] Scaling of evolutionary distance for PI kinases is only relative and is based on literature analysis[62],[63]. Average percent kinome inhibition values from replicate data are supplied in Source Data file. […] Corrected data was normalized to vehicle treated control values, and dose response percent kinase activity was analyzed by non-linear regression for determination of IC50 values.

[2] = target: Target kinase isoforms (PI3K, mTOR, RAF, MEK) (Homo sapiens, UniProt P48736); assay: as above; format: biochemical; settings: PI3K gamma
Excerpt: as §1

[3] = target: T1, Target kinase isoforms (PI3K, mTOR, RAF, MEK) (Homo sapiens, UniProt O00329); assay: as above; format: biochemical; settings: PI3K delta
T1 sequence (O00329 1-1044): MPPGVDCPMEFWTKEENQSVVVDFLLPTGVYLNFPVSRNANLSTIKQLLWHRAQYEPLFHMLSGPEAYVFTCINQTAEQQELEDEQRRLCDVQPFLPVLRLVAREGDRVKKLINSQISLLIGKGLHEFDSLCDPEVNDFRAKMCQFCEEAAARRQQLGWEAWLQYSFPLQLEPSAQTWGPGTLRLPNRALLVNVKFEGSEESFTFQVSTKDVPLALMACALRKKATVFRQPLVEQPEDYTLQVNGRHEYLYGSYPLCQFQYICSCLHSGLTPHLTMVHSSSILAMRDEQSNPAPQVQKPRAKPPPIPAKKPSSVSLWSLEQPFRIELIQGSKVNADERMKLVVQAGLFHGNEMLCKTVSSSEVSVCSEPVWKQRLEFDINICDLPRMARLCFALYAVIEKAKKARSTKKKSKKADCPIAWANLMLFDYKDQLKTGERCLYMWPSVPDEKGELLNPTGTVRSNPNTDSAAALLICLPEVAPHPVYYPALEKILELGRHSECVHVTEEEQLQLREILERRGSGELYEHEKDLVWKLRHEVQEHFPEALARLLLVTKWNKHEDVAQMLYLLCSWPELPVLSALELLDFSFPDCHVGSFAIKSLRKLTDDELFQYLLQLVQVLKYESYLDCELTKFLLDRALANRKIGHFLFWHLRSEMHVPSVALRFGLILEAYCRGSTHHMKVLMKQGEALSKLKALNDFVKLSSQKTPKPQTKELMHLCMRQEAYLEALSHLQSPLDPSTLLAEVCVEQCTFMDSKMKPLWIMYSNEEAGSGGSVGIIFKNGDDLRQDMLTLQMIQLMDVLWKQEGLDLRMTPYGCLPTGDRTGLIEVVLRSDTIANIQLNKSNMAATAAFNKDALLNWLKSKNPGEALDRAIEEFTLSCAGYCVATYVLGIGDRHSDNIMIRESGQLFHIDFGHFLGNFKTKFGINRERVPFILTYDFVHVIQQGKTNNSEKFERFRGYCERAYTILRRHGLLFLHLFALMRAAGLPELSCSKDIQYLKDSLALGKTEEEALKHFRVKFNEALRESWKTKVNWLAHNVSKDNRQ
Excerpt: as §1

[4] = target: Target kinase isoforms (PI3K, mTOR, RAF, MEK) (Homo sapiens, UniProt P42338); assay: as above; format: biochemical; settings: PI3K beta
Excerpt: as §1

[5] = Pharmacokinetic analysis of plasma after intravenous and oral dosing
Procedure: Samples were centrifuged at 15,000 rpm for 10 min, then blood plasma was collected from the upper layer and frozen at −80 °C until analysis. […] Sample processing, chromatographic separation, MS, and MS/MS parameters used for analysis were determined by the core. […] Standard curves for peak area ratio of compound to internal standard (Astd/AIstd) vs. compound concentration were used to determine sample analyte concentrations through linear regression with a weighting average of 1/X^2. […] All pharmacokinetic parameters were estimated using non-compartmental analysis with Phoenix/WINONLIN, and provided by the core along with calculated sample analyte concentrations. Data was generated from n ≥ 3 individual animals sampled per time point per compound for each method of dosing.

[6] = concentration 0.495 nM, 0.000495 µM
[7] = concentration 1.52 nM, 0.00152 µM
[8] = concentration 4.57 nM, 0.00457 µM
[9] = concentration 0.0187 nM, 18.7 pM

Target kinase isoforms (PI3K, mTOR, RAF, MEK) (Homo sapiens, UniProt P42336), sequence (P42336 whole entry, canonical isoform): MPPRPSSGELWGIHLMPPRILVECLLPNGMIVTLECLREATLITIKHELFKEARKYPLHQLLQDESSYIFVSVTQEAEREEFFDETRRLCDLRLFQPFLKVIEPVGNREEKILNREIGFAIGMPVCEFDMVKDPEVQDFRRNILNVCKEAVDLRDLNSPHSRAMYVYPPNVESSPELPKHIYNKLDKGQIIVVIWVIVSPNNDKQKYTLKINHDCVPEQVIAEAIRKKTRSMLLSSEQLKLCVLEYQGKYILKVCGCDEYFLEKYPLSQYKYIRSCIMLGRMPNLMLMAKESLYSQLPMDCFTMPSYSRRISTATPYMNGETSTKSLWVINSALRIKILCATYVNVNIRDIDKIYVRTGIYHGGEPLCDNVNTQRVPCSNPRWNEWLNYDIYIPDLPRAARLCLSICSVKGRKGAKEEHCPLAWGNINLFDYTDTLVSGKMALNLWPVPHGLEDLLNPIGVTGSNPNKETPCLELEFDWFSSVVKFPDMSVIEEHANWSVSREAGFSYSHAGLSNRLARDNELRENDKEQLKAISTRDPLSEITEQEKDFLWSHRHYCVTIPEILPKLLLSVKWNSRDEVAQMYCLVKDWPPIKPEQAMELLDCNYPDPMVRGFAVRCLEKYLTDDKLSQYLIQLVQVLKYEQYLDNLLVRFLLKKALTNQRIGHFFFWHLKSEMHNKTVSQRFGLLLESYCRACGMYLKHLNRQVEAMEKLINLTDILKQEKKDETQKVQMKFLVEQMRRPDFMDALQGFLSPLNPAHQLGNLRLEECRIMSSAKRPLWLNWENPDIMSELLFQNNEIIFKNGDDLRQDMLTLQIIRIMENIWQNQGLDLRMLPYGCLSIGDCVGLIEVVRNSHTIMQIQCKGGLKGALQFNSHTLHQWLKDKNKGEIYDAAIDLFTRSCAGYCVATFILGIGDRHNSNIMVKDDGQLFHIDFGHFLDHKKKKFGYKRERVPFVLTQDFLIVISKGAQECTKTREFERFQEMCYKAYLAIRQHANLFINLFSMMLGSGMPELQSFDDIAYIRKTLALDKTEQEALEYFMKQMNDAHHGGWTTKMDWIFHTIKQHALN
Target kinase isoforms (PI3K, mTOR, RAF, MEK) (Homo sapiens, UniProt P42338), sequence (P42338 whole entry, canonical isoform): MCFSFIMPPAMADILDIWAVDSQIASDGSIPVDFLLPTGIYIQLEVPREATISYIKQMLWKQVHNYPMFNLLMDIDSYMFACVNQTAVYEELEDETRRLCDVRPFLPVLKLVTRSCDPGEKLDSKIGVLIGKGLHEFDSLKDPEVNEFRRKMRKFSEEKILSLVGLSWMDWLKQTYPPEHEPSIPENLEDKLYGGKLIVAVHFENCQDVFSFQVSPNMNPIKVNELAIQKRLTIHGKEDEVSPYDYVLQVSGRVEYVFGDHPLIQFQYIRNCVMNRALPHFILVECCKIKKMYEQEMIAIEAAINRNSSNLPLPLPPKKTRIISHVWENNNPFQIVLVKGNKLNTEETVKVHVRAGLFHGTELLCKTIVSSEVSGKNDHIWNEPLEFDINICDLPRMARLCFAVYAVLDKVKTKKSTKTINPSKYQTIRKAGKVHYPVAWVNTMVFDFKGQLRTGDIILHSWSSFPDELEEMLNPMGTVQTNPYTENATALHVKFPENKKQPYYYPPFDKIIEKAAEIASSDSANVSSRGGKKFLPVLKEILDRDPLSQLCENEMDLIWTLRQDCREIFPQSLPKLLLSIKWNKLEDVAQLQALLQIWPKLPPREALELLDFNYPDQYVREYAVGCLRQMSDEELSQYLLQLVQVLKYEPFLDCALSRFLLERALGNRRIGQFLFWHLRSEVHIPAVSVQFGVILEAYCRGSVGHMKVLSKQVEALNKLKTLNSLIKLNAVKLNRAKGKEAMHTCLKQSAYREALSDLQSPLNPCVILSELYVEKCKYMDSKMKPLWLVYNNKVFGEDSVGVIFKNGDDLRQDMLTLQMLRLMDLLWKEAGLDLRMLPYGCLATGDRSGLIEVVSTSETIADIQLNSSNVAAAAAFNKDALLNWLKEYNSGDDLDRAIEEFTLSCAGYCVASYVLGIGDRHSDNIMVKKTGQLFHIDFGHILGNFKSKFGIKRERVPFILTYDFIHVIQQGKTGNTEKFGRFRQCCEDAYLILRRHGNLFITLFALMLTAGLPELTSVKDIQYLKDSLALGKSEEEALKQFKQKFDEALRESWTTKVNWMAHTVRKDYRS
Target kinase isoforms (PI3K, mTOR, RAF, MEK) (Homo sapiens, UniProt P48736), sequence (P48736 whole entry, canonical isoform): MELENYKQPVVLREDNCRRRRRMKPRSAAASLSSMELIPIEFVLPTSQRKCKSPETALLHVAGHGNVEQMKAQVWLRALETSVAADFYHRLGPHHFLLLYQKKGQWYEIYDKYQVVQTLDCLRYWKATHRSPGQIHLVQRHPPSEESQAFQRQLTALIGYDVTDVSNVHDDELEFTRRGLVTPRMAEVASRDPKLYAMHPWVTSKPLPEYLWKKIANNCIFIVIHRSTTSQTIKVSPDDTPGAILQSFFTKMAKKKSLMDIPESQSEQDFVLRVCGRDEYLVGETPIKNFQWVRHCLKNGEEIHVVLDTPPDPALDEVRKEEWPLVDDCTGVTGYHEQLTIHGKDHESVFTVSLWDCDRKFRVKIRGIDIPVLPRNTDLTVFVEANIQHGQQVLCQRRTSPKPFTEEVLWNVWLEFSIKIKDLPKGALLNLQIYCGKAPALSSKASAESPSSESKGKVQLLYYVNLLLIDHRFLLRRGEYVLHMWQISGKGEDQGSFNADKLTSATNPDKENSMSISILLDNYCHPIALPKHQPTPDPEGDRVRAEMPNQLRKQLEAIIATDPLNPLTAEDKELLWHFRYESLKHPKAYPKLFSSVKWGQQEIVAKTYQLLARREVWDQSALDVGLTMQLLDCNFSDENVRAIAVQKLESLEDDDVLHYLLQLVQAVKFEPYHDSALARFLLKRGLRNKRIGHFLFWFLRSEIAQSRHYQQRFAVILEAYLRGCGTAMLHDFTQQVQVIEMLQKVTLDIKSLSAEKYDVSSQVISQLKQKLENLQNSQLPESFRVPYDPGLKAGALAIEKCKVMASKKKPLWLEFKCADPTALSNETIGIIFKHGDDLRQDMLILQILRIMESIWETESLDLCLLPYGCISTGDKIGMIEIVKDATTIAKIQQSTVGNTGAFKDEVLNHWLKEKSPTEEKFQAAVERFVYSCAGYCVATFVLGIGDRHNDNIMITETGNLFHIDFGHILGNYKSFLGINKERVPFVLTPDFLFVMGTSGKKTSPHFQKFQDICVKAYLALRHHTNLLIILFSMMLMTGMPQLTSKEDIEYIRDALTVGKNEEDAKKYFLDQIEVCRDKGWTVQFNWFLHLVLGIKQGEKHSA

COc1ncc(-c2ccc3nccc(-c4ccnnc4)c3c2)cc1NS(=O)(=O)c1ccc(F)cc1F [GSK2126458]
activity at 670 fM ([1]; concentration 0.000670 nM): 105% | Kinase Activity (%) PI3K alpha ([1]; concentration 0.00209 nM, 2.09 pM): 101% | activity at 18.8 pM ([1]; concentration 0.0188 nM): 91% | Kinase Activity (%) PI3K alpha ([1]; concentration 0.0188 nM, 18.8 pM): 89% | activity at 56.4 pM ([1]; concentration 0.0564 nM): 73% | Kinase Activity (%) PI3K alpha ([1]; concentration 0.0564 nM, 56.4 pM): 75% | activity at 0.000495 µM ([1]; concentration 0.495 nM): 15% | Kinase Activity (%) PI3K alpha [1, 6]: 17% and 18% and 16% and 20% | activity at 0.00152 µM ([1]; concentration 1.52 nM): 4% | Kinase Activity (%) PI3K alpha [1, 7]: 5% and 6% | Kinase Activity (%) PI3K alpha [1, 8]: 1% | activity at 0.0412 µM ([1]; concentration 41.2 nM): 0% | activity at 0.123 µM ([1]; concentration 123 nM): 0% | activity at […] ([1]; concentration 370 nM): 0% | activity at 1.11 µM ([1]; concentration 1110 nM): 0% | Kinase Activity (%) PI3K alpha ([1]; concentration 10000 nM, 10 µM): 1% | activity at 0.00152 µM ([2]; concentration 1.52 nM): 19% | Kinase Activity (%) PI3K gamma [2, 7]: 24% and 22% and 20% and 21% | activity at 0.0412 µM ([2]; concentration 41.2 nM): 0% | activity at 0.123 µM ([2]; concentration 123 nM): 0% | Kinase Activity (%) PI3K gamma ([2]; concentration 370 nM, […]): 1% | activity at 1.11 µM ([2]; concentration 1110 nM): 0% | activity at 3.33 µM ([2]; concentration 3330 nM): 0% | Kinase Activity (%) PI3K gamma ([2]; concentration 10000 nM, 10 µM): 5% | Kinase Activity (%) PI3K gamma ([2]; concentration […], 6.09 pM): 103% | activity at 670 fM ([3]; concentration 0.00067 nM): 113% | Kinase Activity (%) PI3K delta ([3]; concentration 0.00067 nM, 670 fM): 102% | activity at 18.7 pM ([3]; concentration 0.0187 nM): 97% | Kinase Activity (%) PI3K delta [3, 9]: 108% | activity at 56.2 pM ([3]; concentration 0.0562 nM): 81% | Kinase Activity (%) PI3K delta [3, 6]: 16% and 14% and 11% and 8% | Kinase Activity (%) PI3K delta [3, 8]: 6% | activity at 0.0412 µM ([3]; concentration 41.2 nM): 4% | activity at 0.123 µM ([3]; concentration 123 nM): 4% | activity at […] ([3]; concentration 370 nM): 4% | activity at 1.11 µM ([3]; concentration 1110 nM): 4% | Kinase Activity (%) PI3K delta ([3]; concentration 1110 nM, 1.11 µM): 6% | activity at 3.33 µM ([3]; concentration 3330 nM): 5% | Kinase Activity (%) PI3K delta ([3]; concentration 3330 nM, 3.33 µM): 6% and 7% | Kinase Activity (%) PI3K delta ([3]; concentration 10000 nM, 10 µM): 7% and 0% | activity at 2.04 pM ([3]; concentration […]): 103% | activity at 6.09 pM ([3]; concentration […]): 104% | Kinase Activity (%) PI3K delta ([3]; concentration […], 2.04 pM): 105% | Kinase Activity (%) PI3K delta ([3]; concentration […], 6.09 pM): 106% | activity at 18.7 pM ([4]; concentration 0.0187 nM): 103% | Kinase Activity (%) PI3K beta [4, 9]: 108% | activity at 56.2 pM ([4]; concentration 0.0562 nM): 110% | Kinase Activity (%) PI3K beta ([4]; concentration 0.0562 nM, 56.2 pM): 106% | Kinase Activity (%) PI3K beta [4, 6]: 72% and 62% and 60% and 71% and 65% and 84% | Kinase Activity (%) PI3K beta [4, 7]: 48% and 51% and 47% and 67% and 62% | activity at 0.0412 µM ([4]; concentration 41.2 nM): 9% | Kinase Activity (%) PI3K beta ([4]; concentration 41.2 nM, 0.0412 µM): 7% and 8% and 10% | activity at 0.123 µM ([4]; concentration 123 nM): 9% | Kinase Activity (%) PI3K beta ([4]; concentration 123 nM, 0.123 µM): 6% and 10% and 8% and 7% | activity at […] ([4]; concentration 370 nM): 12% | activity at 1.11 µM ([4]; concentration 1110 nM): 9% | Kinase Activity (%) PI3K beta ([4]; concentration 1110 nM, 1.11 µM): 8% | activity at 3.33 µM ([4]; concentration 3330 nM): 11% | Kinase Activity (%) PI3K beta ([4]; concentration 3330 nM, 3.33 µM): 10% | activity at 2.04 pM ([4]; concentration […]): 107%

O=C(O)CCOCCOCCOCCONC(=O)c1ccc(F)c(F)c1Nc1ccc(I)cc1F [LP-622, 1-(3,4-difluoro-2-((2-fluoro-4-iodophenyl)amino)phenyl)-1-oxo-3,6,9,12-tetraoxa-2-azapentadecan-15-oic acid]
Concentration ([5]; Supplementary Figure 6a, i.v., Time 0.167 h, individual replicates): 6.65 ng/mL and 5.91 ng/mL | Concentration ([5]; Supplementary Figure 6a, p.o., Time 0.167 h, individual replicates): 36.6 ng/mL and 47.3 ng/mL and 12.7 ng/mL | Concentration ([5]; Supplementary Figure 6a, p.o., Time 0.5 h, individual replicates): 11.6 ng/mL and 6.25 ng/mL | Concentration ([5]; Supplementary Figure 6a, p.o., Time 1 h, individual replicates): 8.93 ng/mL and 16.9 ng/mL and 5.41 ng/mL | concentration at 0.167 h ([5]; female, CD-1, mouse, plasma, iv, 15 mg kg^−1, Concentration, Supplementary Figure 6a, Time 0.167 h, individual replicates): 9.48 ng/mL | concentration at 0.5 h ([5]; female, CD-1, mouse, plasma, iv, 15 mg kg^−1, Concentration, Time 0.5 h, individual animals, Supplementary Figure 12b): 642 ng/mL | concentration at 1 h ([5]; female, CD-1, mouse, plasma, iv, 15 mg kg^−1, Concentration, Time 1 h, individual animals, Supplementary Figure 12b): 694 ng/mL | concentration at 2 h ([5]; female, CD-1, mouse, plasma, iv, 15 mg kg^−1, Concentration, Time 2 h, individual animals, Supplementary Figure 12b): 122 ng/mL | concentration at 4 h ([5]; female, CD-1, mouse, plasma, iv, 15 mg kg^−1, Concentration, Time 4 h, individual animals, Supplementary Figure 12b): 36.6 ng/mL | concentration at 7 h ([5]; female, CD-1, mouse, plasma, iv, 15 mg kg^−1, Concentration, Time 7 h, individual animals, Supplementary Figure 12b): 23.1 ng/mL | concentration at 16 h ([5]; female, CD-1, mouse, plasma, iv, 15 mg kg^−1, Concentration, Time 16 h, individual animals, Supplementary Figure 12b): 1.67 ng/mL | concentration at 24 h ([5]; female, CD-1, mouse, plasma, iv, 15 mg kg^−1, Concentration, Time 24 h, individual animals, Supplementary Figure 12b): 3.48 ng/mL | concentration at 0.5 h ([5]; female, CD-1, mouse, plasma, po, 400 mg kg^−1, Concentration, Supplementary Figure 6a, Time 0.5 h, individual replicates): 8.5 ng/mL | concentration at 2 h ([5]; female, CD-1, mouse, plasma, po, 400 mg kg^−1, Concentration, Supplementary Figure 6a, Time 2 h, individual replicates): 3.37 ng/mL | Concentration ([5]; i.v., Time 0.167 h, individual animals, Supplementary Figure 12b): 6980 ng/mL and 3600 ng/mL and 9800 ng/mL | Concentration ([5]; i.v., Time 0.5 h, individual animals, Supplementary Figure 12b): 950 ng/mL and 1228 ng/mL | Concentration ([5]; i.v., Time 1 h, individual animals, Supplementary Figure 12b): 1082 ng/mL | Concentration ([5]; i.v., Time 2 h, individual animals, Supplementary Figure 12b): 115.8 ng/mL and 191 ng/mL | Concentration ([5]; i.v., Time 4 h, individual animals, Supplementary Figure 12b): 46.7 ng/mL and 58.4 ng/mL | Concentration ([5]; i.v., Time 7 h, individual animals, Supplementary Figure 12b): 33.2 ng/mL and 30.9 ng/mL | Concentration ([5]; i.v., Time 16 h, individual animals, Supplementary Figure 12b): 1.98 ng/mL | Concentration ([5]; i.v., Time 24 h, individual animals, Supplementary Figure 12b): 2.84 ng/mL and 3.15 ng/mL | Concentration ([5]; p.o., Time 0.167 h, individual animals, Supplementary Figure 12b): 470 ng/mL and 532 ng/mL and 956 ng/mL | Concentration ([5]; p.o., Time 0.5 h, individual animals, Supplementary Figure 12b): 3100 ng/mL and 1908 ng/mL and 6600 ng/mL | Concentration ([5]; p.o., Time 1 h, individual animals, Supplementary Figure 12b): 1430 ng/mL and 460 ng/mL and 669 ng/mL | Concentration ([5]; p.o., Time 2 h, individual animals, Supplementary Figure 12b): 1190 ng/mL and 582 ng/mL and 3880 ng/mL | Concentration ([5]; p.o., Time 4 h, individual animals, Supplementary Figure 12b): 221 ng/mL and 348 ng/mL and 1410 ng/mL | Concentration ([5]; p.o., Time 7 h, individual animals, Supplementary Figure 12b): 1250 ng/mL and 340 ng/mL and 726 ng/mL | Concentration ([5]; p.o., Time 16 h, individual animals, Supplementary Figure 12b): 461 ng/mL and 352 ng/mL and 189 ng/mL | Concentration ([5]; p.o., Time 24 h, individual animals, Supplementary Figure 12b): 55.8 ng/mL and 114 ng/mL and 252 ng/mL
